pEC50: −log10 of the molar value.
What follows are molecules tested against T1, human GLP-1 receptor (Homo sapiens, UniProt P43220) (assay: GLP-1R cAMP Assay). Details: cAMP accumulation in CHO cells stably overexpressing the human GLP-1 receptor; 30 min treatment; HitHunter cAMP kit; read-out: EC50.
T1 construct: expressed in transfected cells
Assay type: cell-based
Procedure, shortened: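 CHO cells stably overexpressing human GLP-1R, 10,000 cells/well, treated with compound in 20-point dose response in triplicate for 30 min. cAMP accumulation read by enzyme-complementation luminescence after lysis and overnight incubation; dose-response curves fitted.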

T1 sequence (P43220 24-463): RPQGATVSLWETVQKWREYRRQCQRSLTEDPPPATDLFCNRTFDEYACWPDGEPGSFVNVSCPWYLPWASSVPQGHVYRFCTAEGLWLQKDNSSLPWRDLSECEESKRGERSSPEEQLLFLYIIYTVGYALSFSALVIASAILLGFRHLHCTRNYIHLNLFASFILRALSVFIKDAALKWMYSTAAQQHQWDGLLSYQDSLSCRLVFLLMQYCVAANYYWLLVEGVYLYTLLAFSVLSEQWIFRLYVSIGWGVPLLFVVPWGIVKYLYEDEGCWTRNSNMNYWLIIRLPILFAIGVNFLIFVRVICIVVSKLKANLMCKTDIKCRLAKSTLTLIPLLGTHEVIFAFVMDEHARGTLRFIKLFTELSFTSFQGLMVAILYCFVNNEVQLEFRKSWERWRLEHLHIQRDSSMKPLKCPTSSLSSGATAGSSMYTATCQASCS

Compound	pEC50
CCn1cncc1Cn1c(CN2CCC(Cc3cccc(COc4ccc(F)cc4C#N)c3)CC2)nc2ccc(C(=O)O)cc21 [Compound 188, 2-{[4-({3-[(2-cyano-4-fluorophenoxy)methyl]phenyl}methyl)piperidin-1-yl]methyl}-1-[(1-ethyl-1H-imidazol-5-yl)methyl]-1H-1,3-benzodiazole-6-carboxylic acid]	> 7.30
O=C(O)c1ccc2nc(CN3CCC(Oc4ccnc(COc5ccc(Cl)cc5Cl)c4)CC3)n(C[C@H]3CCOC3)c2c1 [Compound 169, 2-{[4-({2-[(2,4-dichlorophenoxy)methyl]pyridin-4-yl}oxy)piperidin-1-yl]methyl}-1-{[(3R)-oxolan-3-yl]methyl}-1H-1,3-benzodiazole-6-carboxylic acid]	> 7.30
Cc1ccc(OCc2ccc(F)c(CC3CCN(Cc4nc5ccc(C(=O)O)cc5n4C[C@@H]4CCO4)CC3)n2)c(Cl)c1 [Compound 123, 2-{[4-({6-[(2-chloro-4-methylphenoxy)methyl]-3-fluoropyridin-2-yl}methyl)piperidin-1-yl]methyl}-1-{[(2S)-oxetan-2-yl]methyl}-1H-1,3-benzodiazole-6-carboxylic acid]	> 7.30
O=C(O)c1ccc2nc(CN3CCN(Cc4ccc(COc5ccc(Cl)cc5Cl)o4)CC3)n(C[C@@H]3CCO3)c2c1 [Compound 9, 2-{[4-({5-[(2,4-dichlorophenoxy)methyl]furan-2-yl}methyl)piperzin-1-yl]methyl}-1-{[(2S)-oxetan-2-yl]methyl}-1H-1,3-benzodiazole-6-carboxylic acid]	6.30 to 7.30
Clc1ccc(COc2cccc(C3=CCN(Cc4ccc(-c5nn[nH]n5)nc4)CC3)n2)c(Cl)c1 [Example 110, 1′-((6-(2H-Tetrazol-5-yl)pyridin-3-yl)methyl)-6-((2,4-dichlorobenzyl)oxy)-1′,2′,3′,6′-tetrahydro-2,4′-bipyridine]	6.30 to 7.30
N#Cc1ccc(OCc2nccc(O[C@@H]3C[C@H]4CC[C@@H](C3)N4Cc3nc4ccc(C(=O)O)cc4n3C[C@@H]3CCO3)n2)c(F)c1 [Compound 487, 2-{[(1R,3S,5S)-3-({2-[(4-cyano-2-fluorophenoxy)methyl]pyrimidin-4-yl}oxy)-8-azabicyclo[3.2.1]octan-8-yl]methyl}-1-{[(2S)-oxetan-2-yl]methyl}-1H-1,3-benzodiazole-6-carboxylic acid]	6.30 to 7.30
CCn1cncc1Cn1c(CN2CCN(Cc3ccc(COc4ccc(Cl)cc4Cl)o3)CC2)nc2ccc(C(=O)O)cc21 [Compound 63, 2-{[4-({5-[(2,4-dichlorophenoxy)methyl]furan-2-yl}methyl)piperazin-1-yl]methyl}-1-[(1-ethyl-1H-imidazol-5-yl)methyl]-1H-1,3-benzodiazole-6-carboxylic acid]	> 7.30
Cc1ccc(OCc2ccc(C(=O)N3CCN(Cc4nc5ccc(C(=O)O)cc5n4C[C@@H]4CCO4)CC3)o2)cc1 [Compound 42, 2-[(4-{5-[(4-methylphenoxy)methyl]furan-2-carbonyl}piperazin-1-yl)methyl]-1-{[(2S)-oxetan-2-yl]methyl}-1H-1,3-benzodiazole-6-carboxylic acid]	< 6.30
O=C(O)c1ccc2nc(CN3CCN(C(=O)c4cccc(Oc5ccc(Cl)cc5)c4)CC3)n(C[C@@H]3CCO3)c2c1 [Compound 7, 2-({4-[3-(4-chlorophenoxy)benzoyl]piperazin-1-yl}methyl)-1-{[(2S)-oxetan-2-yl]methyl}-1H-1,3-benzodiazole-6-carboxylic acid]	< 6.30
CCn1cncc1Cn1c(CN2CCC(C(F)(F)c3cccc(COc4ccc(Cl)cc4Cl)c3)CC2)nc2ccc(C(=O)O)cc21 [Compound 161, 2-{[4-({3-[(2,4-dichlorophenoxy)methyl]phenyl}difluoromethyl)piperidin-1-yl]methyl}-1-[(1-ethyl-1H-imidazol-5-yl)methyl]-1H-1,3-benzodiazole-6-carboxylic acid]	> 7.30
N#Cc1cc(F)ccc1OCc1cc(OC2CCN(Cc3nc4ccc(C(=O)O)cc4n3C[C@@H]3CCO3)CC2)ccn1 [Compound 183, 2-{[4-({2-[(2-cyano-4-fluorophenoxy)methyl]pyridin-4-yl}oxy)piperidin-1-yl]methyl}-1-{[(2S)-oxetan-2-yl]methyl}-1H-1,3-benzodiazole-6-carboxylic acid]	> 7.30
N#Cc1ccc(OCc2cccc(C(=O)N3CCN(Cc4nc5ccc(C(=O)O)cc5n4C[C@@H]4CCO4)CC3)c2)c(F)c1 [Compound 68, 2-[(4-{3-[(4-cyano-2-fluorophenoxy)methyl]benzoyl}piperazin-1-yl)methyl]-1-{[(2S)-oxetan-2-yl]methyl}-1H-1,3-benzodiazole-6-carboxylic acid]	< 6.30

Continued, values first:

pEC50	Compound
> 7.30	CCn1cncc1Cn1c(CN2CCC(Oc3ccnc(COc4ccc(Cl)cc4C#N)c3)CC2(C)C)nc2ccc(C(=O)O)cc21 (centres unmarked) [Example 276, 2-((4-((2-((4-Chloro-2-cyanophenoxy)methyl)pyridin-4-yl)oxy)-2,2-dimethylpiperidin-1-yl)methyl)-1-((1-ethyl-1H-imidazol-5-yl)methyl)-1H-benzo[d]imidazole-6-carboxylic acid]
> 7.30	O=C(O)c1ccc2nc(CN3CCC(Oc4ccnc(COc5ccc(Cl)cc5F)c4)CC3)n(CC3(O)CC3)c2c1 [Compound 345]
> 7.30	Cc1cc(C(=O)O)cc2c1nc(CN1CCC(Oc3ccnc(COc4ccc(F)cc4C#N)n3)CC1)n2C[C@@H]1CCO1 [Compound 500, 2-{[4-({2-[(2-cyano-4-fluorophenoxy)methyl]pyrimidin-4-yl}oxy)piperidin-1-yl]methyl}-4-methyl-1-{[(2S)-oxetan-2-yl]methyl}-1H-1,3-benzodiazole-6-carboxylic acid]
> 7.30	O=C(O)c1ccc2nc(CN3CCC(Oc4ccnc(COc5ccc(Cl)cc5CO)c4)CC3)n(CC3CCO3)c2c1 (centres unmarked) [Compound 292, 2-({4-[(2-{[4-chloro-2-(hydroxymethyl)phenoxy]methyl}pyridin-4-yl)oxy]piperidin-1-yl}methyl)-1-[(oxetan-2-yl)methyl]-1H-1,3-benzodiazole-6-carboxylic acid]
> 7.30	Cn1cncc1Cn1c(CN2CCC(Oc3cccc(COc4ccc(Cl)cc4F)n3)CC2)nc2ccc(C(=O)O)cc21 [Compound 264, 2-{[4-({6-[(4-chloro-2-fluorophenoxy)methyl]pyridin-2-yl}oxy)piperidin-1-yl]methyl}-1-[(1-methyl-1H-imidazol-5-yl)methyl]-1H-1,3-benzodiazole-6-carboxylic acid]
6.30 to 7.30	CCn1cncc1Cn1c(CN2CCC([C@H](OC)c3cccc(COc4ccc(Cl)cc4Cl)c3)CC2)nc2ccc(C(=O)O)cc21 (single isomer, unassigned) [Example 205]
< 6.30	CN(c1ccccc1)c1cc(C(=O)N2CCN(Cc3nc4ccc(C(=O)O)cc4n3C[C@@H]3CCO3)CC2)ncn1 [Example 62, (S)-2-((4-(6-(Methyl(phenyl)amino)pyrimidine-4-carbonyl)piperazin-1-yl)methyl)-1-(oxetan-2-ylmethyl)-1H-benzo[d]imidazole-6-carboxylic acid]
> 7.30	O=C(O)c1ccc2nc(CN3CCC(Cc4cnc(COc5ncc(C6CC6)cc5Cl)o4)CC3)n(C[C@@H]3CCO3)c2c1 [Example 136, (S)-2-((4-((2-(((3-Chloro-5-cyclopropylpyridin-2-yl)oxy)methyl)oxazol-5-yl)methyl)piperidin-1-yl)methyl)-1-(oxetan-2-ylmethyl)-1H-benzo[d]imidazole-6-carboxylic acid]
> 7.30	O=C(O)c1ccc2nc(CN3CCC(Oc4ccnc(COc5ccc(Cl)cc5CF)c4)CC3)n(C[C@@H]3CCO3)c2c1 [Example 299, (S)-2-((4-((2-((4-Chloro-2-(fluoromethyl)phenoxy)methyl)pyridin-4-yl)oxy)piperidin-1-yl)methyl)-1-(oxetan-2-ylmethyl)-1H-benzo[d]imidazole-6-carboxylic acid]
> 7.30	O=C(O)c1ccc2nc(CN3CCC(Oc4cccc(COc5ccc(C(F)F)cc5F)c4)CC3)n(C[C@@H]3CCO3)c2c1 [Compound 301]
< 6.30	C[C@@H](Oc1ccc(Cl)cc1Cl)c1ccc(C(=O)N2CCN(Cc3nc4ccc(C(=O)O)cc4n3C[C@@H]3CCO3)CC2)o1 (relative stereo) [Example 94, 2-((4-(5-((R)-1-(2,4-dichlorophenoxy)ethyl)furan-2-carbonyl)piperazin-1-yl)methyl)-1-(((S)-oxetan-2-yl)methyl)-1H-benzo[d]imidazole-6-carboxylic acid]
> 7.30	O=C(O)c1ccc2nc(CN3CCC(Oc4ccnc(COc5ccc(C(F)F)cc5F)c4)CC3)n(C[C@@H]3CCO3)c2c1 [Example 297, (S)-2-((4-((2-((4-(Difluoromethyl)-2-fluorophenoxy)methyl)pyridin-4-yl)oxy)piperidin-1-yl)methyl)-1-(oxetan-2-ylmethyl)-1H-benzo[d]imidazole-6-carboxylic acid]
< 6.30	O=C(O)c1ccc2nc(CN3CCN(Cc4ccc(COc5ccccc5)o4)CC3)n(C[C@@H]3CCO3)c2c1 [Example 20, (S)-1-(Oxetan-2-ylmethyl)-2-((4-((5-(phenoxymethyl)furan-2-yl)methyl)piperazin-1-yl)methyl)-1H-benzo[d]imidazole-6-carboxylic acid]
> 7.30	C[C@H]1C[C@@H](Oc2ccnc(COc3ccc(F)cc3C#N)n2)CCN1Cc1nc2ccc(C(=O)O)cc2n1CC1(CC#N)CC1 [Compound 353]
> 7.30	O=C(O)c1ccc2nc(CN3CCC(Oc4cccc(OCc5ccc(F)cc5Cl)c4)CC3)n(C[C@@H]3CCO3)c2c1 [Compound 207]
> 7.30	O=C(O)c1cc(F)c2nc(CN3CCC(Oc4ccnc(COc5ccc(Cl)cc5F)n4)CC3)n(CC3(CF)CC3)c2c1 [Compound 324]
> 7.30	Cc1ccc(N(C)c2cccc(CC3CCN(Cc4nc5ccc(C(=O)O)cc5n4C[C@@H]4CCO4)CC3)c2)c(Cl)c1 [Example 116, (S)-2-((4-(3-((2-Chloro-4-methylphenyl)(methyl)amino)benzyl)piperidin-1-yl)methyl)-1-(oxetan-2-ylmethyl)-1H-benzo[d]imidazole-6-carboxylic acid]
